The source of these data is patent US6414003B1, “Oxazolone derivatives and their use as anti-helicobacter pylori agents” (Takeda Chemical Industries, Ltd., priority 1996, dated 2002).

The test system of one experiment is H. pylori NCTC 11916. The experiment can be described thus: In vitro antimicrobial test (agar dilution method). Format: cell-based, Helicobacter pylori. The following applies: Brucella agar with 7% horse blood. The method, then:
(§1) Using 5 strains of Helicobacter pylori, 19 other bacterial species and 2 yeast species as test strains, the antimicrobial activities of various compounds were determined by the method described below (agar dilution method). The test compound was dissolved in dimethyl sulfoxide; this solution was 2-fold diluted step by step with sterilized distilled water to yield test samples. Two milliliters of each test sample was mixed with 18 ml of Brucella agar supplemented with 7% horse blood as a medium to prepare a determination plate. Helicobacter pylori was subjected to shaking culture at 37° C. in a gas pack jar incorporating CampyPak™ (BBL^R Beckton Dickinson Microbiology Systems) for 20 hours, using Brucella broth medium supplemented with 2.5% fetal bovine serum, to yield a seed inoculum. The other test microorganisms were each cultured at 37° C. for 20 hours, using Brucella broth medium, to yield respective seed inocula.
Five microliters of each seed inoculum, previously adjusted to about 10^6 CFU/ml using Brucella broth medium supplemented with 2.5% fetal bovine serum was inoculated to each determination plate, and cultured at 37° C. in a gas pack jar incorporating CampyPak™ and water-soaked cotton absorbent for 4 days. […]

Experiment [1] deals with Helicobacter pylori NCTC 11637. As to the kind of experiment: In vitro antimicrobial test (agar dilution method). The class given is cell-based. The following applies: Brucella agar with 7% horse blood, 37° C., 4 days. In general terms: In agar dilution the substance is mixed into plates at graded concentrations.
Experiment [2] relates to Helicobacter pylori TN2GF4. The experiment can be described thus: In vivo antimicrobial activity test in infected mongolian gerbils. The following applies: for Clearance Rate: mongolian gerbils infected with H. pylori TN2GF4; for Bacterial Detection: mean±standard deviation. As for the experimental part: After mongolian gerbils (MGS/Sea, male, 6 weeks of age) were fasted for 24 hours, Helicobacter pylori TN2GF4 was inoculated to the stomach at 10^7.08 per mongolian gerbil. Starting at 11 days after infection, a 3, 10, 30, or 100 mg/kg suspension of the test compound in a 0.5% aqueous solution of methyl cellulose was orally administered twice daily (morning and evening) for 3 days. On the day after final administration, the stomach of each infected mongolian gerbil was excised and disrupted; a series of 10-fold dilutions of the stomach homogenate were each inoculated to modified Skirrow's medium supplemented with activated charcoal and cultured under microaerophilic conditions at 37° C. for 4 days, after which clearance effect was assessed on the basis of the presence or absence of bacterial growth. Bacterial cell counts are expressed in mean±standard deviation after Dunnett's test against the control group.
In Table 4, ** indicates p<0.01.

Another experiment has as its system H. pylori CPY 433. As to the kind of experiment: In vitro antimicrobial test (agar dilution method). The class given is cell-based, Helicobacter pylori. The following applies: Brucella agar with 7% horse blood.
Experiment [3] relates to Proteus morganii IFO 3168. The experiment can be described thus: In vitro antimicrobial test (agar dilution method). Format: cell-based. The following applies: Brucella agar with 7% horse blood, 37° C., 4 days. As for the experimental part: as §1
(§2) Five microliters of each seed inoculum, previously adjusted to about 10^6 CFU/ml using Brucella broth medium supplemented with 2.5% fetal bovine serum was inoculated to each determination plate, and cultured at 37° C. in a gas pack jar incorporating CampyPak™ and water-soaked cotton absorbent for 4 days. After cultivation, strain growth was macroscopically examined; the minimum concentration for the absence of strain growth was taken as the MIC value (minimum inhibitory concentration) of the test compound.

Experiment [4] concerns Alcaligenes faecalis IFO 13111. The experiment can be described thus: In vitro antimicrobial test (agar dilution method). The class given is cell-based. The following applies: Brucella agar with 7% horse blood, 37° C., 4 days. As for the experimental part:
as §1, §2

Experiment [5] concerns Micrococcus flavus IFO 3242. As to the kind of experiment: In vitro antimicrobial test (agar dilution method). Format: cell-based. The following applies: Brucella agar with 7% horse blood, 37° C., 4 days. As for the experimental part: as §1, §2
In experiment [6] the test system is Klebsiella pneumoniae IFO 3317. As to the kind of experiment: In vitro antimicrobial test (agar dilution method). Format: cell-based. The following applies: Brucella agar with 7% horse blood, 37° C., 4 days. As for the experimental part: as §1, §2
The test system of another experiment is Escherichia coli K12. The experiment can be described thus: In vitro antimicrobial test (agar dilution method). The class given is cell-based. The following applies: Brucella agar with 7% horse blood, 37° C., 4 days. The method, then:
as §1, §2

Experiment [7] relates to Pseudomonas aeruginosa IFO 3080. As to the kind of experiment: In vitro antimicrobial test (agar dilution method). Format: cell-based. The following applies: Brucella agar with 7% horse blood, 37° C., 4 days. The method, then:
as §1, §2

Experiment [8] deals with Escherichia coli NIHJ JC-2. As to the kind of experiment: In vitro antimicrobial test (agar dilution method). The class given is cell-based. The following applies: Brucella agar with 7% horse blood, 37° C., 4 days. The method, then: as §1, §2
Experiment [9] deals with Micrococcus luteus IFO 12708. The experiment can be described thus: In vitro antimicrobial test (agar dilution method). The class given is cell-based. The following applies: Brucella agar with 7% horse blood, 37° C., 4 days. As for the experimental part:
as §1, §2

Experiment [10] concerns Citrobater freundii IFO 12681. As to the kind of experiment: In vitro antimicrobial test (agar dilution method). The class given is cell-based. The following applies: Brucella agar with 7% horse blood, 37° C., 4 days. The method, then:
as §1, §2

Experiment [11] relates to Proteus mirabilis ATCC 21100. The experiment can be described thus: In vitro antimicrobial test (agar dilution method). The class given is cell-based. The following applies: Brucella agar with 7% horse blood, 37° C., 4 days. As for the experimental part: as §1, §2
The test system of experiment [12] is Staphylococcus aureus FDA 209P. As to the kind of experiment: In vitro antimicrobial test (agar dilution method). The following applies: Brucella agar with 7% horse blood, 37° C., 4 days. Format: cell-based. The method, then: as §1, §2
Experiment [13] has as its system Serratia marcescens IFO 3046. The experiment can be described thus: In vitro antimicrobial test (agar dilution method). Format: cell-based. The following applies: Brucella agar with 7% horse blood, 37° C., 4 days. As for the experimental part: as §1, §2
In experiment [14] the test system is Proteus vulgaris IFO 3045. As to the kind of experiment: In vitro antimicrobial test (agar dilution method). Format: cell-based. The following applies: Brucella agar with 7% horse blood, 37° C., 4 days. As for the experimental part: as §1, §2
Experiment [15] concerns Salmonella enteritidis IFO 3313. The experiment can be described thus: In vitro antimicrobial test (agar dilution method). Format: cell-based. The following applies: Brucella agar with 7% horse blood, 37° C., 4 days. The method, then: as §1, §2
The subject of experiment [16] is Candida albicans IFO 0583. The experiment can be described thus: In vitro antimicrobial test (agar dilution method). Format: cell-based. The following applies: Brucella agar with 7% horse blood, 37° C., 4 days. As for the experimental part: as §1, §2
Experiment [17] deals with Saccharomyces cerevisiae IFO 0209. As to the kind of experiment: In vitro antimicrobial test (agar dilution method). The class given is cell-based. The following applies: Brucella agar with 7% horse blood, 37° C., 4 days. The method, then:
as §1, §2

In experiment [18] the test system is Bacillus subtilis PCI 219. The experiment can be described thus: In vitro antimicrobial test (agar dilution method). The class given is cell-based. The following applies: Brucella agar with 7% horse blood, 37° C., 4 days. The method, then: as §1, §2
Another experiment deals with Bacillus cereus IFO 3514. As to the kind of experiment: In vitro antimicrobial test (agar dilution method). The class given is cell-based. The following applies: Brucella agar with 7% horse blood, 37° C., 4 days. As for the experimental part:
as §1, §2

Experiment [19] deals with Salmonella typhimurium IFO 12529. As to the kind of experiment: In vitro antimicrobial test (agar dilution method). The following applies: Brucella agar with 7% horse blood, 37° C., 4 days. Format: cell-based. As for the experimental part:
as §1, §2

For experiment [20], the system named is Bacillus megaterium IFO 12108. The experiment can be described thus: In vitro antimicrobial test (agar dilution method). The class given is cell-based. The following applies: Brucella agar with 7% horse blood, 37° C., 4 days. As for the experimental part:
as §1, §2

The subject of experiment [21] is Bacillus pumilus IFO 3813. The experiment can be described thus: In vitro antimicrobial test (agar dilution method). Format: cell-based. The following applies: Brucella agar with 7% horse blood, 37° C., 4 days. As for the experimental part: as §1, §2
The test system of another experiment is H. pylori TN 2. As to the kind of experiment: In vitro antimicrobial test (agar dilution method). The class given is cell-based, Helicobacter pylori. The following applies: Brucella agar with 7% horse blood.
A further experiment concerns H. pylori TN 58. The experiment can be described thus: In vitro antimicrobial test (agar dilution method). The following applies: Brucella agar with 7% horse blood. Format: cell-based, Helicobacter pylori.
Setting [22] is: 3 mg/kg orally twice daily for 3 days.

Structures are written as SMILES. Converted amounts (≈) assume the structure as drawn. Bounds are passed on as bounds.

Broadly, the MIC is the lowest concentration found to suppress growth. Lower therefore signals a more susceptible organism. For `CN=C1NC(=O)[C@H]([C@H](C)c2c[nH]c3ccccc23)O1` [Indolmycin, indolmycin], the MIC with H. pylori NCTC 11916 was 0.013 µg/mL (≈ 0.0505 µM); in experiment [1], 0.006 µg/mL (≈ 0.0233 µM); in the experiment with H. pylori CPY 433 it was 0.013 µg/mL (≈ 0.0505 µM); in experiment [3] it was over 100 µg/mL; in experiment [4], over 100 µg/mL; in experiment [5] it was over 100 µg/mL. Also, the MIC in experiment [6] is over 100 µg/mL; in the experiment on Escherichia coli K12, over 100 µg/mL; in experiment [7] it was over 100 µg/mL; in experiment [8], over 100 µg/mL; in [9], 12.5 µg/mL (≈ 48.6 µM); in experiment [10] it was over 100 µg/mL. Also, the MIC in experiment [11], in experiment [12], in experiment [13], in experiment [14], in experiment [15] and in experiment [16] was over 100 µg/mL in each case. The MIC (in experiment [17]; in [18]; against Bacillus cereus IFO 3514; in experiment [19]; in [20]; in experiment [21]) was over 100 µg/mL in each case. Further, the MIC with H. pylori TN 2 came to 0.006 µg/mL (≈ 0.0233 µM); in the experiment with H. pylori TN 58 it was 0.025 µg/mL (≈ 0.0972 µM). Moreover, the “Clearance Rate” value is given as 0/5 (0) % in [2] (setting [22]); 0/5 (0) % in experiment [2] (10 mg/kg orally twice daily for 3 days); 1/4 (25) % in experiment [2] (30 mg/kg orally twice daily for 3 days); 25% in [2] (30 mg/kg orally twice daily for 3 days, listed as indolmycin); 4/5 (80) % in experiment [2] (100 mg/kg orally twice daily for 3 days); 80% in [2] (100 mg/kg orally twice daily for 3 days, listed as indolmycin). Moreover, the “Bacterial Detection” value is given as 4.61 ± 1.84 log CFU/gastric wall in [2] (setting [22]); 2.76 ± 1.04** log CFU/gastric wall in experiment [2] (10 mg/kg orally twice daily for 3 days, ** p<0.01 vs control); 1.96 ± 0.78** log CFU/gastric wall in experiment [2] (30 mg/kg orally twice daily for 3 days, ** p<0.01 vs control); 1.48 ± 0.00** log CFU/gastric wall in experiment [2] (100 mg/kg orally twice daily for 3 days, ** p<0.01 vs control). Further, the “gastric bacterial cell count (in words)” value in [2] (10 mg/kg or higher, mongolian gerbil) is given as “reduced the mongolian gerbil gastric bacterial cell count with dose dependency”.
`C[C@H](c1c[nH]c2ccccc12)[C@@H]1OC(N(C)C(=O)OCc2ccccc2)=NC1=O` [Example 2, (5S)-2-(N-Benzyloxycarbonyl-N-methyl)amino-5[(1R)-1-(indol-3-yl)ethyl]-2-oxazolin-4-one]: the MIC in experiment [1] stood at 0.025 µg/mL (≈ 0.0639 µM); against H. pylori CPY 433, 0.05 µg/mL (≈ 0.128 µM); in the experiment with H. pylori TN 2, 0.025 µg/mL (≈ 0.0639 µM); against H. pylori TN 58 it was 0.05 µg/mL (≈ 0.128 µM).
